Results from patent publication US10501421B1, “Substituted benzimidazoles as modulators of Ras signaling” (VANDERBILT UNIVERSITY, priority 2017, dated 2019).
Where a name gives a salt, the structure may show the parent alone.

Legend:
[1] = biological target: Ras GEF SOS (Son of Sevenless) (Homo sapiens, UniProt Q07889); test: SOS-mediated nucleotide exchange on Ras (BODIPY-GDP fluorescence); format: biochemical; conditions: SOS-mediated exchange of BODIPY-GDP for GTP on Ras
Outline: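 Ras loaded with BODIPY-GDP was mixed in buffer with test compound, then GTP and SOS. Fluorescence change from labeled GDP/GTP exchange was followed over time, and rates came from single-exponential fits. EC50 came from a four-parameter fit of mean rate against compound concentration.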

[2] = biological target: T1, Son of Sevenless (SOS) (Homo sapiens, UniProt Q07889); test: Binding to SOS, fluorescence polarization anisotropy (FPA) probe displacement; conditions: displacement of FITC-conjugated probe (Example 285), affinity calculated from IC50
T1 sequence (Q07889 564-1049 limits assumed): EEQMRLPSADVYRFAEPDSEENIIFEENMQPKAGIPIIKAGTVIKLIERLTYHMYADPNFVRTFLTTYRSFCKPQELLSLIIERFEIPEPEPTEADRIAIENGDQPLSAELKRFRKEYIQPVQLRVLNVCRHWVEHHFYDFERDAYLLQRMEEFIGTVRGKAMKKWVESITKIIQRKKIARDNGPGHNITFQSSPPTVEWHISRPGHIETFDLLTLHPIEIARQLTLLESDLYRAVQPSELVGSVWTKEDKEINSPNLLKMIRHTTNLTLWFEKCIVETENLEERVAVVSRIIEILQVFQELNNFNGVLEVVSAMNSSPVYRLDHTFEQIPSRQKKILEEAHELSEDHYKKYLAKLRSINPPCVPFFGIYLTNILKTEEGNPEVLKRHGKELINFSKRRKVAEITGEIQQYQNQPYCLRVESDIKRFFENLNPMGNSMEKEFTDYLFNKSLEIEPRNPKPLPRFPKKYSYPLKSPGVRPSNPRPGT
Outline: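 A FITC-conjugated probe compound was incubated with SOS in buffer, and its displacement was tracked as a change in fluorescence anisotropy across a test-compound dose range. IC50 came from a four-parameter variable-slope fit, and binding affinity was calculated from it.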

Chain of Ras GEF SOS (Son of Sevenless) (P01112 1-166 partner limits assumed, one chain of several): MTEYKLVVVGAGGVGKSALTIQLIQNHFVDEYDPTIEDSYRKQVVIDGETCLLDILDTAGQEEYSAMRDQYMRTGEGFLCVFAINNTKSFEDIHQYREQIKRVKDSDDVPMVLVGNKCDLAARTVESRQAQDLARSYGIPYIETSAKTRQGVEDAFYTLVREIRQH

Row | Compound | EC50 [1] | Ki [2]
1 | Cc1cc(NCCCCN(C)C)c2nc(N3CCNCC3)n(Cc3cc(C)c(F)c(C)c3)c2c1 [Example 196, N^1-(1-(4-fluoro-3,5-dimethylbenzyl)-6-methyl-2-(piperazin-1-yl)-1H-benzo[d]imidazol-4-yl)-N^4,N^4-dimethylbutane-1,4-diamine trifluoroacetate] | 1 to 5 µM | 0.5 to 1 µM
2 | Cc1cc(Cn2c(N3CCNCC3)nc3c(OC4CCNC4)cccc32)ccc1F (stereo not shown) [Example 206, 1-(4-fluoro-3-methylbenzyl)-2-(piperazin-1-yl)-4-(pyrrolidin-3-yloxy)-1H-benzo[d]imidazole] | < 1 µM | > 5 µM
3 | Fc1ccc(CN2C3=NCCCN3c3cc(Cl)ccc32)cc1Cl [Example 214, 7-chloro-10-(3-chloro-4-fluorobenzyl)-2,3,4,10-tetrahydrobenzo[4,5]imidazo[1,2-a]pyrimidine] | 30 to 100 µM | > 5 µM
4 | Fc1cc(F)cc(Cn2c(N3CCNCC3)nc3c(-c4ccccc4F)cccc32)c1 [Example 90, 1-(3,5-difluorobenzyl)-4-(2-fluorophenyl)-2-(piperazin-1-yl)-1H-benzo[d]imidazole] | 1 to 5 µM | 1 to 5 µM
5 | Cc1cc2c(nc(N3CCNCC3)n2Cc2ccc(F)c(C)c2)c(CNC2CCCC2)n1 [Example 232, N-((1-(4-fluoro-3-methylbenzyl)-6-methyl-2-(piperazin-1-yl)-1H-imidazo[4,5-c]pyridin-4-yl)methyl)cyclopentanamine] | 5 to 30 µM | > 5 µM
6 | Cc1cc2nc(NCCN)n(Cc3ccc(F)c(Cl)c3)c2cc1Cl [Example 69, N^1-(6-chloro-1-(3-chloro-4-fluorobenzyl)-5-methyl-1H-benzo[d]imidazol-2-yl)ethane-1,2-diamine trifluoroacetate] | < 1 µM | 0.5 to 1 µM
7 | Cc1cc(Cn2c(N3CCNCC3)nc3c(-c4ccc(CN)cc4)cc(Cl)cc32)cc(C)c1F [Example 122, (4-(6-chloro-1-(4-fluoro-3,5-dimethylbenzyl)-2-(piperazin-1-yl)-1H-benzo[d]imidazol-4-yl)phenyl)methanamine trifluoroacetate] | 1 to 5 µM | 0.5 to 1 µM
8 | CCc1cc(Cn2c(NCCN)nc3c(-c4ccccc4Cl)c(C)c(C)cc32)ccc1Cl [Example 112, N^1-(1-(4-chloro-3-ethylbenzyl)-4-(2-chlorophenyl)-5,6-dimethyl-1H-benzo[d]imidazol-2-yl)ethane-1,2-diamine trifluoroacetate] | 5 to 30 µM | 1 to 5 µM
9 | Cc1cc(Cn2c(NCCN)nc3c([C@@H](N)c4ccccc4)cc(Cl)cc32)cc(C)c1F [Example 160, (S)—N^1-(4-(amino(phenyl)methyl)-6-chloro-1-(4-fluoro-3,5-dimethylbenzyl)-1H-benzo[d]imidazol-2-yl)ethane-1,2-diamine trifluoroacetate] | 1 to 5 µM | < 0.5 µM
10 | Cc1cc2nc(NC3CCNC3)n(Cc3ccc(F)c(Cl)c3)c2cc1C (stereo not shown) [Example 293, 1-(3-chloro-4-fluorobenzyl)-5,6-dimethyl-N-(pyrrolidin-3-yl)-1H-benzo[d]imidazol-2-amine] | 1 to 5 µM | 1 to 5 µM
11 | Cc1cc(Cn2c(N3CCNCC3)nc3c(-c4ccccc4C#Cc4ccccc4Cl)cc(Cl)cc32)cc(C)c1F [Example 183, 6-chloro-4-(2-((2-chlorophenyl)ethynyl)phenyl)-1-(4-fluoro-3,5-dimethylbenzyl)-2-(piperazin-1-yl)-1H-benzo[d]imidazole trifluoroacetate] | 1 to 5 µM | 0.5 to 1 µM
12 | Cc1cc(Cn2c(NCCN)nc3c(-c4ccccc4Cl)cc(Cl)cc32)cc(C)c1F [Example 306, N^1-(6-chloro-4-(2-chlorophenyl)-1-(4-fluoro-3,5-dimethylbenzyl)-1H-benzo[d]imidazol-2-yl)ethane-1,2-diamine] | 1 to 5 µM | < 0.5 µM
13 | Cc1cc2nc(N3CCNCC3)n(CC3CCCCC3)c2cc1C [Example 37, 1-(cyclohexylmethyl)-5,6-dimethyl-2-(piperazin-1-yl)-1H-benzo[d]imidazole trifluoroacetate] | 5 to 30 µM | > 5 µM
14 | Cc1cc(NCCCN(C)C)c2nc(N3CCNCC3)n(Cc3cc(C)c(F)c(C)c3)c2c1 [Example 197, N^1-(1-(4-fluoro-3,5-dimethylbenzyl)-6-methyl-2-(piperazin-1-yl)-1H-benzo[d]imidazol-4-yl)-N^3,N^3-dimethylpropane-1,3-diamine trifluoroacetate] | 1 to 5 µM | 0.5 to 1 µM
15 | CCc1cc2c(cc1C)nc(N1CCNCC1)n2Cc1ccc(F)c(CC)c1 [Example 67, 6-ethyl-1-(3-ethyl-4-fluorobenzyl)-5-methyl-2-(piperazin-1-yl)-1H-benzo[d]imidazole trifluoroacetate] | 5 to 30 µM | > 5 µM
16 | COC(=O)c1cnn(CCN(C)C)c1-c1cc(C)cc2c1nc(N1CCNCC1)n2Cc1ccc(F)c(Cl)c1 [Example 180, methyl 5-(1-(3-chloro-4-fluorobenzyl)-6-methyl-2-(piperazin-1-yl)-1H-benzo[d]imidazol-4-yl)-1-(2-(dimethylamino)ethyl)-1H-pyrazole-4-carboxylate] | < 1 µM | 1 to 5 µM
17 | Fc1ccc(Cn2c(C3CCNCC3)nc3ccccc32)cc1 [Example 56, 1-(4-fluorobenzyl)-2-(piperidin-4-yl)-1H-benzo[d]imidazole trifluoroacetate] | 5 to 30 µM | > 5 µM
18 | Cc1cc(Br)c2nc(NCCN)n(Cc3cc(C)c(F)c(C)c3)c2c1 [Example 313, N^1-(4-bromo-1-(4-fluoro-3,5-dimethylbenzyl)-6-methyl-1H-benzo[d]imidazol-2-yl)ethane-1,2-diamine] | 1 to 5 µM | 1 to 5 µM
19 | Cc1cc(Cn2c(NCCN)nc3c(C4=CCNCC4)cc(Cl)cc32)cc(C)c1F [Example 303, N^1-(6-chloro-1-(4-fluoro-3,5-dimethylbenzyl)-4-(1,2,3,6-tetrahydropyridin-4-yl)-1H-benzo[d]imidazol-2-yl)ethane-1,2-diamine] | < 1 µM | < 0.5 µM
20 | CCc1cc2c(cc1C)nc(N1CCNCC1)n2Cc1ccc(F)c(Cl)c1 [Example 66, 1-(3-chloro-4-fluorobenzyl)-6-ethyl-5-methyl-2-(piperazin-1-yl)-1H-benzo[d]imidazole trifluoroacetate] | 5 to 30 µM | > 5 µM
21 | Cc1cnc2nc(NCCN)n(Cc3ccc(F)c(Cl)c3)c2c1 [Example 246, N^1-(1-(3-chloro-4-fluorobenzyl)-6-methyl-1H-imidazo[4,5-b]pyridin-2-yl)ethane-1,2-diamine] | 1 to 5 µM | 1 to 5 µM
22 | NCCc1cccc2c1nc(N1CCNCC1)n2Cc1ccc(F)c(Cl)c1 [Example 98, 2-(1-(3-chloro-4-fluorobenzyl)-2-(piperazin-1-yl)-1H-benzo[d]imidazol-4-yl)ethan-1-amine trifluoroacetate] | 1 to 5 µM | > 5 µM
23 | Cc1cc2c(nc(N3CCNCC3)n2Cc2ccc(F)c(C)c2)c(-c2cccnc2C)n1 [Example 227, 1-(4-fluoro-3-methylbenzyl)-6-methyl-4-(2-methylpyridin-3-yl)-2-(piperazin-1-yl)-1H-imidazo[4,5-c]pyridine] | 1 to 5 µM | > 5 µM
24 | Cc1cc(Cn2c(N3CCNCC3)nc3c(N4CCCCC4)cc(Cl)cc32)cc(C)c1F [Example 297, 6-chloro-1-(4-fluoro-3,5-dimethylbenzyl)-2-(piperazin-1-yl)-4-(piperidin-1-yl)-1H-benzo[d]imidazole] | 1 to 5 µM | < 0.5 µM
25 | CN(C)CCn1nccc1-c1cc(Cl)cc2c1nc(N1CCNCC1)n2Cc1ccc(F)c(Cl)c1 [Example 175, 2-(5-(6-chloro-1-(3-chloro-4-fluorobenzyl)-2-(piperazin-1-yl)-1H-benzo[d]imidazol-4-yl)-1H-pyrazol-1-yl)-N,N-dimethylethan-1-amine trifluoroacetate] | < 1 µM | 0.5 to 1 µM
26 | Cc1cc(Cn2c(N3CCNCC3)nc3c(-n4ccc(N)c4)cc(Cl)cc32)cc(C)c1F [Example 279, 1-[6-chloro-1-[(4-fluoro-3,5-dimethylphenyl)methyl]-2-piperazin-1-ylbenzimidazol-4-yl]pyrrol-3-amine] | 1 to 5 µM | < 0.5 µM
27 | Cc1cc(-c2ccccc2C)c2ncn(Cc3ccc(F)c(Cl)c3)c2c1 [Example 143, 1-(3-chloro-4-fluorobenzyl)-6-methyl-4-(o-tolyl)-1H-benzo[d]imidazole] | 5 to 30 µM | > 5 µM
28 | Cc1cc2nc(N3CCNCC3)n(Cc3ccc(F)cc3)c2cc1C [Example 21, 1-(4-fluorobenzyl)-5,6-dimethyl-2-(piperazin-1-yl)-1H-benzo[d]imidazole trifluoroacetate] | 5 to 30 µM | > 5 µM
29 | Cc1cc(OCCN(C)C)c2nc(N3CCNCC3)n(Cc3cc(C)c(F)c(C)c3)c2c1 [Example 203, 2-((1-(4-fluoro-3,5-dimethylbenzyl)-6-methyl-2-(piperazin-1-yl)-1H-benzo[d]imidazol-4-yl)oxy)-N,N-dimethylethan-1-amine] | < 1 µM | 0.5 to 1 µM
